Measured values published in EP2439195B1, “NAPHTHALENE CARBOXAMIDE DERIVATIVES AS INHIBITORS OF PROTEIN KINASE AND HISTONE DEACETYLASE, PREPARATION METHODS AND USES THEREOF” (Shenzhen Chipscreen Biosciences, Ltd., priority 2009, dated 2010).

Experiments:
Type in all cases: in vivo
[1] = system: SSMC7721 human liver cancer cells; experiment: Nude mice tumor transplanted from human SSMC7721 liver cancer (Example 53); settings: 40 mg/kg orally once a day for 24 days
Experimental: Female nu/nu mice of 18∼20g were fed by normal diet for 3 days. Then the cultured SSMC7721 human liver cancer cells were implanted into the armpit of 50 mice. […] One group was treated with vehicle. One group was treated with Sutent, the positive control drug. […] Each group was dosed orally once a day for 24 days. […] The tumor growth inhibition of each group was calculated using the following formula: {[([…])} × 100%. [formula] The experimental results are shown in Table 7 and Figure 3.

[2] = system: human SSMC7721 liver cancer; experiment: Nude mice tumor transplanted from human SSMC7721 liver cancer (Example 56); settings: 40 mg/kg orally once a day for 30 days
Experimental: (§1) Female nu/nu mice of 18∼20g were fed by normal diet for 3 days. Then the cultured SSMC7721 human liver cancer cells were implanted into the armpit of 50 mice. […] Each group had 8 mice. One group was treated with vehicle. One group was treated with Sutent, the positive control drug. Two groups were treated with compound 33 at different concentrations. The other two groups were treated with compound 37 at different concentrations. Each group was dosed orally once a day for 30 days. […] The tumor growth inhibition of each group was calculated using the following formula: {[(the average tumor weight of control group)-(the average tumor weight of test group)]/(the average tumor weight of control group)} × 100%. [formula] The experimental results are shown in Table 10 and Figure 6. Table10

[3] = system: human A549 lung cancer; experiment: Nude mice tumor transplanted from human A549 lung cancer (Example 51); settings: 40 mg/kg orally once a day for 24 days
Experimental: Then the cultured A549 human lung cancer cells were implanted into the armpit of 50 mice. […] Each group had 8 mice. One group was treated with vehicle. One group was treated with Sutent, the positive control drug. […] Each group was dosed orally once a day for 24 days. Tumor volumes along with body weights were recorded twice per week. On the next day after 24 doses, the mice were killed, and tumors were weighed. The tumor growth inhibition of each group was calculated using the following formula: {[(the average tumor weight of control group)-(the average tumor weight of test group)]/(the average tumor weight of control group)}×100%.

[4] = system: human HCT-8 colon cancer; experiment: Nude mice tumor transplanted from human HCT-8 colon cancer (Example 52); settings: 40 mg/kg orally once a day
Experimental: Female nu/nu mice of 18∼20g were fed by normal diet for 3 days. Then the cultured HCT-8 human colon cancer cells were implanted into the armpit of 50 mice. […] Each group had 8 mice. One group was treated with vehicle. One group was treated with Sutent, the positive control drug. […] Each group was dosed orally once a day for 24 days. Tumor volumes along with body weights were recorded twice per week. On the next day after 20 doses, the mice were killed, and tumors were weighed. The tumor growth inhibition of each group was calculated using the following formula: {[([…])} × 100%. [formula] The experimental results are shown in Table 6 and Figure 2.

[5] = system: human HCT-8 colon cancer; experiment: Nude mice tumor transplanted from human HCT-8 colon cancer (Example 54); settings: 40 mg/kg orally once a day for 20 days
Experimental: as §1, with “cultured HCT-8” for “cultured SSMC7721”, “human colon” for “human liver”, “compound 34” for “compound 37”, “for 20” for “for 30”, “Table 8” for “Table 10”, “Figure 4.” for “Figure 6. Table10”

SMILES: CCN(CC)CCNC(=O)c1c(C)[nH]c(/C=C2\C(=O)Nc3ccc(F)cc32)c1C [Sutent, sunitinib, reference compound]
- Tumor weight [1]: 1.00 ± 0.68 g
- Body weight (g) end ([1]; end): 24.8 ± 1.2 g
- Body weight (g) start ([1]; start): 21.0 ± 0.8 g
- TGI (%) ([1]; tumor growth inhibition): 70.3%
- Tumor weight [2]: 0.88 ± 0.39 g
- Body weight (g) end ([2]; end): 24.0 ± 0.6 g
- Body weight (g) start ([2]; start): 21.2 ± 1.1 g
- TGI (%) ([2]; tumor growth inhibition): 61.1%
- Tumor weight [3]: 2.06 ± 0.71 g
- Body weight (g) end ([3]; end): 24.4 ± 2.3 g
- Body weight (g) start ([3]; start): 20.3 ± 1.4 g
- TGI (%) ([3]; tumor growth inhibition): 50.9%
- Body weight (g) end ([4]; end): 22.4 ± 1.1 g
- Tumor weight ([4]; killed after 20 doses): 0.23 ± 0.07 g
- Body weight (g) start ([4]; start): 21.5 ± 0.7 g
- TGI (%) ([4]; tumor growth inhibition): 95.3%
- Tumor weight [5]: 0.44 ± 0.15 g
- Body weight (g) end ([5]; end): 22.1 ± 1.5 g
- Body weight (g) start ([5]; start): 20.6 ± 1.2 g
- TGI (%) ([5]; tumor growth inhibition): 89.1%
